Reference: patent US8147818B2, “Hepatitis C virus inhibitors” (Bristol-Myers Squibb Company, priority 2008, dated 2012)

tested on: HCV 1b-377-neo replicon cells; assay: HCV Replicon assay, HCV 1b-377-neo replicon cells; assay type: cell-based, HCV 1b genotype; settings: Hepatitis C virus, read-out: EC50 against HCV 1b (Activity or Range)
Protocol: An HCV Replicon assay was utilized in the present disclosure, and was prepared, conducted and validated as described in commonly owned PCT/US2006/022197 and in O'Boyle et. al. Antimicrob Agents Chemother. 2005 April; 49(4):1346-53.
HCV 1b-377-neo replicon cells were used to test the currently described compound series as well as cells resistant to compound A containing a Y2065H mutation in NS5A (described in application PCT/US2006/022197). The compounds tested were determined to have more than 10-fold less inhibitory activity on cells containing the mutation than wild-type cells indicating a related mechanism of action between the two compound series. Thus, the compounds of the present disclosure can be effective to inhibit the function of the HCV NS5A protein and are understood to be as effective in combinations as previously described in application PCT/US2006/022197 and commonly owned WO/O4014852. Further, the compounds of the present disclosure can be effective against the HCV 1b genotype. It should also be understood that the compounds of the present disclosure can inhibit multiple genotypes of HCV. […] In one embodiment compounds of the present disclosure are active against the 1a, 1b, 2a, 2b, 3a, 4a, and 5a genotypes.

| SMILES | EC50 |
| --- | --- |
| COC(=O)N[C@H](C(=O)N1CCC[C@H]1c1ncc(-c2ccc(-c3ccc4c(c3)Cc3nc([C@@H]5CCCN5C(=O)[C@@H](NC(=O)OC)C(C)C)[nH]c3CC4)cc2)[nH]1)C(C)C [Example 22p] | 0.16 nM |
| COC(=O)N[C@H](C(=O)N1[C@@H]2C[C@@H]2C[C@H]1c1nc2c([nH]1)CCc1cc(-c3ccc(-c4[nH]c([C@@H]5C[C@H]6C[C@H]6N5C(=O)[C@@H](NC(=O)OC)C(C)C)nc4CC(F)(F)F)cc3)ccc1-2)C(C)C [Example 22r.3] | 0.003 nM |
| COC(=O)N[C@H](C(=O)N1CCC[C@H]1c1ncc(-c2ccc(-c3ccc4c(c3)CCc3[nH]c([C@@H]5CCCN5C(=O)[C@@H](NC(=O)OC)[C@@H](C)OC)nc3-4)cc2F)[nH]1)[C@H](C)OC [Example 22s.c] | 0.02 nM |
| COC(=O)N[C@H](C(=O)N1CC(F)(F)C[C@H]1c1ncc(-c2ccc(-c3ccc4c(c3)CCc3[nH]c([C@@H]5CCCN5C(=O)[C@@H](NC(=O)OC)C(C)C)nc3-4)cc2)[nH]1)C(C)C [Example 22t] | 0.001 nM |
| COC(=O)N[C@@H](C(=O)N1CCC[C@H]1c1nc2c(ccc3cc(-c4ccc5c(ccc6nc([C@@H]7CCCN7C(=O)[C@H](NC(=O)OC)c7ccccc7)[nH]c65)c4)ccc32)[nH]1)c1ccccc1 [Example 22u.2b] | 0.02 nM |
| CCN(CC)[C@@H](C(=O)N1CCC[C@H]1c1ncc(-c2ccc(-c3ccc4c(ccc5[nH]c([C@@H]6CCCN6C(=O)[C@@H](c6ccccc6)N(CC)CC)nc54)c3)cc2)[nH]1)c1ccccc1 [Example 22u.a] | 0.01 nM |

same assay, conditions: Hepatitis C virus, read-out: EC50 against HCV 1b (Activity or Range), range class

| SMILES | EC50 |
| --- | --- |
| CCN(CC)[C@@H](C(=O)N1CCC[C@H]1c1ncc(-c2ccc(-c3ccc4c(c3)CCCCc3c-4nc([C@@H]4CCCN4C(=O)[C@@H](c4ccccc4)N(CC)CC)n3O)cc2)[nH]1)c1ccccc1 [Example 22q.1] | 0.001 to 0.1 nM |
| COC(=O)N[C@H](C(=O)N1CCC[C@H]1c1ncc(-c2ccc(-c3ccc4c(c3)CCCCc3c-4nc([C@@H]4CCCN4C(=O)[C@@H](NC(=O)OC)C(C)C)n3O)cc2)[nH]1)C(C)C [Example 22q] | 0.001 to 0.1 nM |
| COC(=O)N[C@H](C(=O)N1CCC[C@H]1c1nc2c([nH]1)CCc1cc(-c3ccc(-c4[nH]c([C@@H]5CCCN5C(=O)[C@@H](NC(=O)OC)C(C)C)nc4CCC(F)(F)F)cc3)ccc1-2)C(C)C [Example 22r.1] | 0.001 to 0.1 nM |
| COC(=O)N[C@H](C(=O)N1[C@@H]2C[C@@H]2C[C@H]1c1ncc(-c2ccc(-c3ccc4c(c3)CCc3[nH]c([C@@H]5C[C@H]6C[C@H]6N5C(=O)[C@@H](NC(=O)OC)C(C)C)nc3-4)cc2)[nH]1)C(C)C [Example 22r.2] | 0.001 to 0.1 nM |
| CCN(CC)[C@@H](C(=O)N1[C@@H]2C[C@@H]2C[C@H]1c1ncc(-c2ccc(-c3ccc4c(c3)CCc3[nH]c([C@@H]5C[C@H]6C[C@H]6N5C(=O)[C@@H](c5ccccc5)N(CC)CC)nc3-4)cc2)[nH]1)c1ccccc1 [Example 22r.2a] | 0.001 to 0.1 nM |
| COC(=O)N[C@@H](C(=O)N1[C@@H]2C[C@@H]2C[C@H]1c1ncc(-c2ccc(-c3ccc4c(c3)CCc3[nH]c([C@@H]5C[C@H]6C[C@H]6N5C(=O)[C@H](NC(=O)OC)c5ccccc5)nc3-4)cc2)[nH]1)c1ccccc1 [Example 22r.2b] | 0.001 to 0.1 nM |
| COC(=O)N[C@H](C(=O)N1CCC[C@H]1c1nc2c([nH]1)CCc1cc(-c3ccc4c(c3)CCc3[nH]c([C@@H]5CCCN5C(=O)[C@@H](NC(=O)OC)C(C)C)nc3-4)ccc1-2)C(C)C [Example 22r.4] | 0.001 to 0.1 nM |
| COC(=O)N[C@H](C(=O)N1[C@@H]2C[C@@H]2C[C@H]1c1nc2c([nH]1)CCc1cc(-c3ccc4c(c3)CCc3[nH]c([C@@H]5C[C@H]6C[C@H]6N5C(=O)[C@@H](NC(=O)OC)C(C)C)nc3-4)ccc1-2)C(C)C [Example 22r.5] | 0.001 to 0.1 nM |
| CCN(CC)[C@@H](C(=O)N1CCC[C@H]1c1ncc(-c2ccc(-c3ccc4c(c3)CCc3[nH]c([C@@H]5CCCN5C(=O)[C@@H](c5ccccc5)N(CC)CC)nc3-4)cc2)[nH]1)c1ccccc1 [Example 22r.a] | 0.001 to 0.1 nM |
| COC(=O)N[C@H](C(=O)N1CCC[C@H]1c1ncc(-c2ccc(-c3ccc4c(c3)OCc3[nH]c([C@@H]5CCCN5C(=O)[C@@H](NC(=O)OC)C(C)C)nc3-4)cc2)[nH]1)C(C)C [Example 22r.b] | 0.001 to 0.1 nM |
| COC(=O)N[C@H](C(=O)N1CCC[C@H]1c1ncc(-c2ccc(-c3ccc4c(c3)CCc3[nH]c([C@@H]5CCCN5C(=O)[C@@H](NC(=O)OC)C(C)C)nc3-4)cc2)[nH]1)C(C)C [Example 22r] | 0.001 to 0.1 nM |
| COC(=O)N[C@H](C(=O)N1[C@@H]2C[C@@H]2C[C@H]1c1ncc(-c2ccc(-c3ccc4c(c3)CCc3[nH]c([C@@H]5C[C@H]6C[C@H]6N5C(=O)[C@@H](NC(=O)OC)C(C)C)nc3-4)cc2F)[nH]1)C(C)C [Example 22s.1] | 0.001 to 0.1 nM |
| CCN(CC)[C@@H](C(=O)N1[C@@H]2C[C@@H]2C[C@H]1c1ncc(-c2ccc(-c3ccc4c(c3)CCc3[nH]c([C@@H]5C[C@H]6C[C@H]6N5C(=O)[C@@H](c5ccccc5)N(CC)CC)nc3-4)cc2F)[nH]1)c1ccccc1 [Example 22s.1a] | 0.001 to 0.1 nM |
| COC(=O)N[C@@H](C(=O)N1[C@@H]2C[C@@H]2C[C@H]1c1ncc(-c2ccc(-c3ccc4c(c3)CCc3[nH]c([C@@H]5C[C@H]6C[C@H]6N5C(=O)[C@H](NC(=O)OC)c5ccccc5)nc3-4)cc2F)[nH]1)c1ccccc1 [Example 22s.1b] | 0.001 to 0.1 nM |
| CCN(CC)[C@@H](C(=O)N1CCC[C@H]1c1ncc(-c2ccc(-c3ccc4c(c3)CCc3[nH]c([C@@H]5CCCN5C(=O)[C@@H](c5ccccc5)N(CC)CC)nc3-4)cc2F)[nH]1)c1ccccc1 [Example 22s.a] | 0.001 to 0.1 nM |
| COC(=O)N[C@H](C(=O)N1CCC[C@H]1c1ncc(-c2ccc(-c3ccc4c(c3)CCc3[nH]c([C@@H]5CCCN5C(=O)[C@@H](NC(=O)OC)C(C)C)nc3-4)cc2F)[nH]1)C(C)C [Example 22s] | 0.001 to 0.1 nM |
| COC(=O)N[C@H](C(=O)N1CCC[C@H]1c1ncc(-c2ccc(-c3ccc4c(c3)CCc3[nH]c([C@@H]5CC(F)(F)CN5C(=O)[C@@H](NC(=O)OC)C(C)C)nc3-4)cc2)[nH]1)C(C)C [Example 22t.1] | 0.001 to 0.1 nM |
| CCN(CC)[C@@H](C(=O)N1CCC[C@H]1c1ncc(-c2ccc(-c3ccc4c(c3)CCc3[nH]c([C@@H]5CC(F)(F)CN5C(=O)[C@@H](c5ccccc5)N(CC)CC)nc3-4)cc2)[nH]1)c1ccccc1 [Example 22t.1a] | 0.001 to 0.1 nM |
| CCN(CC)[C@@H](C(=O)N1CC(F)(F)C[C@H]1c1ncc(-c2ccc(-c3ccc4c(c3)CCc3[nH]c([C@@H]5CCCN5C(=O)[C@@H](c5ccccc5)N(CC)CC)nc3-4)cc2)[nH]1)c1ccccc1 [Example 22t.a] | 0.001 to 0.1 nM |
| COC(=O)N[C@H](C(=O)N1[C@@H]2C[C@@H]2C[C@H]1c1ncc(-c2ccc(-c3ccc4c(ccc5[nH]c([C@@H]6C[C@H]7C[C@H]7N6C(=O)[C@@H](NC(=O)OC)C(C)C)nc54)c3)cc2)[nH]1)C(C)C [Example 22u.1] | 0.001 to 0.1 nM |
| COC(=O)N[C@H](C(=O)N1CCC[C@H]1c1nc2c(ccc3cc(-c4ccc5c(ccc6nc([C@@H]7CCCN7C(=O)[C@@H](NC(=O)OC)C(C)C)[nH]c65)c4)ccc32)[nH]1)C(C)C [Example 22u.2] | 0.001 to 0.1 nM |
| CCN(CC)[C@@H](C(=O)N1CCC[C@H]1c1nc2c(ccc3cc(-c4ccc5c(ccc6nc([C@@H]7CCCN7C(=O)[C@@H](c7ccccc7)N(CC)CC)[nH]c65)c4)ccc32)[nH]1)c1ccccc1 [Example 22u.2a] | 0.001 to 0.1 nM |
| COC(=O)N[C@H](C(=O)N1[C@@H]2C[C@@H]2C[C@H]1c1nc2c([nH]1)-c1ccc(-c3ccc4c(ccc5[nH]c([C@@H]6C[C@H]7C[C@H]7N6C(=O)[C@@H](NC(=O)OC)C(C)C)nc54)c3)cc1CC2)C(C)C [Example 22u.4] | 0.001 to 0.1 nM |
| COC(=O)N[C@H](C(=O)N1[C@@H]2C[C@@H]2C[C@H]1c1nc2c(ccc3cc(-c4ccc5c(ccc6nc([C@@H]7C[C@H]8C[C@H]8N7C(=O)[C@@H](NC(=O)OC)C(C)C)[nH]c65)c4)ccc32)[nH]1)C(C)C [Example 22u.5] | 0.001 to 0.1 nM |
| COC(=O)N[C@@H](C(=O)N1[C@@H]2C[C@@H]2C[C@H]1c1nc2c(ccc3cc(-c4ccc5c(ccc6nc([C@@H]7C[C@H]8C[C@H]8N7C(=O)[C@H](NC(=O)OC)c7ccccc7)[nH]c65)c4)ccc32)[nH]1)c1ccccc1 [Example 22u.5a] | 0.001 to 0.1 nM |
| COC(=O)N[C@H](C(=O)N1CCC[C@H]1c1ncc(-c2ccc(-c3ccc4c(ccc5[nH]c([C@@H]6CCCN6C(=O)[C@@H](NC(=O)OC)[C@@H](C)OC)nc54)c3)cc2)[nH]1)[C@H](C)OC [Example 22u.b] | 0.001 to 0.1 nM |
| COC(=O)N[C@H](C(=O)N1CCC[C@H]1c1ncc(-c2ccc(-c3ccc4c(ccc5[nH]c([C@@H]6CCCN6C(=O)[C@@H](NC(=O)OC)C(C)C)nc54)c3)cc2)[nH]1)C(C)C [Example 22u] | 0.001 to 0.1 nM |
| COC(=O)N[C@H](C(=O)N1[C@@H]2C[C@@H]2C[C@H]1c1ncc(-c2ccc(-c3ccc4c(ccc5[nH]c([C@@H]6C[C@H]7C[C@H]7N6C(=O)[C@@H](NC(=O)OC)C(C)C)nc54)c3)cc2F)[nH]1)C(C)C [Example 22v.1] | 0.001 to 0.1 nM |
